Patent US20110144125A1, “Anti-Arrhythmia Agents, Methods of Their Use, Methods of Their Identification and Kits Therefore” (THE UAB RESEARCH FOUNDATION, priority 2008, published 2011)
Where a name gives a salt, the structure may show the parent alone.

How the values were obtained:
[1] = system: rat left atrial appendage; test: ATXII-induced triggered activity and transition to automaticity in left atrial appendage
Excerpt: There are two types of afterdepolarizations; early afterdepolarizations (EADs) that occur early during repolarization and delayed afterdepolarizations (DADs) that occur in fully repolarized, resting myocytes (FIG. 4). Both EADs and DADs are defined as “triggered” activities as they require a preceding normal action potential to occur (FIG. 3B). One model to elicit EADs is to expose heart muscle or myocytes to Anemonia sulcata Toxin II (ATX II). This 47 amino acid peptide specifically enhances late sodium current and prolongs the action potential duration (FIG. 3D; middle panel). This leads to calcium loading of heart muscle followed by EADs during phase 2 or phase 3 of the action potential (FIGS. 3D & 5). These EADs, if of sufficient magnitude, produce ectopic mechanical events (FIG. 3B; ‡).
In embodiments of the assay an agent to induce arrhythmia will be introduced in the muscle. The arrhythmic agent may be chemical or physical. If the agent is chemical, it can be any chemical agent known by those skilled in the art to induce arrhythmia. The chemical agent will be introduced at a concentration sufficient to induce arrhythmia. If a certain type of arrhythmia is the subject of the assay (for example, triggered activity, tachycardia or any other type of arrhythmia), then the agent should be present at a concentration sufficient to produce the certain type of arrhythmia. One acceptable agent is anemone toxin II (“ATX II,”), the toxin of Anemone sulcata. ATX II is a sodium channel regulator.
It was tested whether the altered voltage-independent calcium homeostasis which 2-APB provokes is sufficient to initiate frank automaticity from triggered activity.

[2] = system: rat left atria; test: Spontaneous tachycardic activity (STA) in isolated rat left atria exposed to 2-APB under increased calcium load
Experimental: (§1) Male Sprague-Dawley rats (325-400 g) were anesthetized with intra-peritoneal pentobarbital (0.1 g/kg). Their right and left atria were isolated, superfused at 30° C. in Krebs-Henseleit buffer, and nearly isometric forces of contraction were measured from these muscles (Wolkowicz et al., 2002). 2-APB was prepared as a 150 mM dimethyl sulfoxide stock.
(§2) Left atria (n=8 per group) were paced at 3 Hz and (i) titrated with 0 to 30 nM isoproterenol (Ahlquist, 1970) or (ii) exposed to 3 μM forskolin (Laurenza et al., 1980). Left atrial force and frequency of contraction, the time to peak tension and relaxation times were recorded after a 3-5 min exposure to forskolin or to any concentration of isoproterenol. The 3 Hz pacing stimulus was interrupted at the end of these protocols to measure SMEs.
Left atria (n=10 per group) were paced at 0.1 Hz and treated with (i) 20 μM 2-APB for 10 min, (ii) with 30 nM isoproterenol for 5 min followed by 20 μM 2-APB for 10 min, and (iii) with 3 μM forskolin for 5 min followed by 20 μM 2-APB for 10 min.
Left atrial contraction and relaxation times were recorded at these five times, the pacing stimulus was stopped and rates of SMA were recorded. To determine whether initial pacing rate affects left atrial response to 2-APB and isoproterenol, left atria (n=5-7 per group) were paced at 3 Hz and (i) remained untreated for 15 min, (ii) were treated with 20 μM 2-APB alone for 10 min, or (ii) were treated with 30 nM isoproterenol for 5 min followed by 20 μM 2-APB for 10 min. Atrial mechanical function was measured at these four times; the pacing stimulus then was stopped and rates of SMA were recorded.
(§3) Left atria (n=6 per group) were paced at 3 Hz, titrated with 0 to 300 nM (−)BayK 8644 ([…]-1,4-Dihydro-2,6-dimethyl-5-nitro-4-[2-(trifluormethyl)phenyl]-3-pyridinecarboxylic acid methyl ester; Franckowiak et al. 1985) or FPL-64176 ((2,5-Dimethyl-4-[2-(phenylmethyl)benzoyl]-111-pyrrole-3-carboxylic acid methyl ester; Zheng et al., 1991) and their mechanical function and rates of SMA were recorded after a 5 min exposure to any concentration of slow calcium channel activator.
Left atria (n=8 per group) were paced at 0.1 Hz, exposed to 300 nM BayK 8644 or FPL-64176 for 5 min followed by 20 μM 2-APB for 10 min. Atrial mechanical function was recorded at this time; the pacing stimulus then was stopped and rates of SMA were recorded.
(§4) To test whether ryanodine receptor calcium leak produces SMA, left atria (n=6 per group) were paced at 0.1 Hz, treated with 0 or 300 nM BayK 8644 for 5 min, and then exposed to 600 nM ryanodine (Sutko et al., 1997). Atrial mechanical function and rates of SMA were recorded 20 min after exposure to ryanodine.
Rates of SMA were measured 5 min later.
(§5) Left atria (n=7) were paced at 3 Hz, treated with 120 μM ouabain (Illanes and Marshall, 1964), and any change in mechanical function was recorded at a new steady state, ˜10 min later. These atria were exposed to 20 μM 2-APB and their mechanical function and rates of SMA were recorded 10 min later.
3 Hz-paced left atria (n=9 per group) were superfused (i) in Krebs-Henseleit alone or (ii) they were treated with 20 μM 2-APB for 10 min, (iii) with 300 nM BayK 8644 for 10 min and with 20 μM 2-APB for 10 min, or (iv) they were treated with 300 nM BayK 8644 and 20 μM 2-APB for 10 min, then with 70 μM zatebradine (3-[3-[[2-(3,4-Dimethoxyphenyl)ethyl]methylamino] propyl]-1,3,4,5-tetrahydro-7,8,-dimethoxy-2H-3-benzazepin-2-one hydrochloride) for 10 min (Baruscotti et al., 2005). Pacing was interrupted at these times and rates of SMA were recorded.

[3] = system: rat right atria; test: Right atrial spontaneous (pacemaker-driven) contraction frequency
Experimental: as §1
Left atria (n=9) were paced at 0.1 Hz, treated with 300 nM BayK 8644 for 5 min, then with 20 μM 2-APB for 10 min, and the pacing stimulus was stopped. These preparations then were incubated with six increasing concentrations of zatebradine (10-100 μM) for 3-5 min at each concentration, and rates of SMA were recorded. Untreated right atria (n=9) also were titrated with zatebradine and its effect on contraction frequency was recorded.
To test whether zatebradine affects the SMA occurring in the presence of 2-APB and isoproterenol, left atria (n=7) were paced at 0.1 Hz, treated with 30 nM isoproterenol for 5 min, then with 20 μM 2-APB for 10 min, and the pacing stimulus was stopped. Rates of SMA were recorded, these left atria were exposed to 70 μM zatebradine for 10 min, and rates of SMA were recorded again. A group of right atria (n=7) also were exposed to 30 nM isoproterenol for 5 min and then to 70 μM zatebradine for 10 min. Right atrial contraction frequency was recorded at these two times.
To test whether ZD-7288 (4-Ethylphenyl amino-1,2-dimethyl-6-methylaminopyridinium chloride), an If inhibitor structurally unrelated to zatebradine (Baruscotti et al., 2005; Sanders et al., 2006) affects the SMA occurring in the presence of 2-APB and BayK 8644, rat left atria (n=7) were treated with 300 nM BayK 8644 for 5 min, then with 20 μM 2-APB for 10 min, and the rates of SMA were recorded. These atria then were incubated with six increasing concentrations of ZD-7288 (10-100 μM) for 3-5 min at each concentration, and the rates of SMA were recorded. Right atria (n=7) were titrated similarly with ZD-7288 (0-100 μM) and the change in their contraction frequency was recorded.

[4] = system: rat left atria; test: Left atrial force of contraction / post-rest potentiation maximum force; conditions: 3 Hz paced, 300 nM BayK 8644, titrated with 10-100 μM zatebradine
Experimental: Left atria were isolated from male Sprague-Dawley rats (325 to 400 g) under IP pentobarbital anesthesia (0.1 g/kg). Isolated left atria were superfused at 30° C. in Krebs-Henseleit (KH) buffer of the following mM composition: NaCl, 118; NaHCO3, 27; KCl, 4.8; MgSO4, 1.2; KH2PO4, 1.0; CaCl2, 1.8; and glucose, 11.1. Nearly isometric left atrial forces of contraction were measured as described.
The initial potentiated beat following prolonged rest (i.e., the PRP maximum force of contraction) reflects activator calcium available for SR release. The PRP response was used to obtain an indirect measure of left atrial SR calcium under our conditions.
Left atria (n=6) were superfused in KH, paced at 0.1 Hz, and subjected to PRP. Superfusion proceeded for another 35 min, and a second PRP was performed. These 2 forces were compared to assure the mechanical stability of our preparations.
One group (n=8) was superfused in KH, paced at 0.1 Hz, and their maximum force of contraction was measured. These atria were washed with KH containing 82 mM sodium, and a second PRP was performed 23 min later.
A second group (n=8) was paced at 0.1 Hz in KH and subjected to PRP. They were exposed to 22 μM 2-APB and, after the appearance of SMA, were washed with KH containing 22 μM 2-APB and 82 mM sodium. Superfusion continued for 23 min and a second PRP was performed.
Control 0.1 Hz paced atria (n=8) were subjected to PRP and exposed to 400 μM DIDS, and a second PRP was performed 23 min later.
A group of atria (n=8) were paced at 0.1 Hz in KH and subjected to PRP. They were exposed to 22 μM 2-APB, 400 μM DIDS was added to the superfusate after the appearance of SMA, and a second PRP was performed 23 min later.
as §2, §3, §4, §5
To test whether zatebradine affects left atrial force of contraction, two groups of left atria (n=9 per group) were paced at 3 Hz and treated with 300 nM BayK 8644. Five minutes later one group was incubated with six increasing concentrations of zatebradine (10-100 μM) for 3-5 min at each concentration, and forces of contraction were recorded. A second group was treated with BayK 8644 but not zatebradine, and forces of contraction were recorded at corresponding times.

Row | Compound | ATXII concentration provoking automatic activity [1] [nM] | effect on action potential ([1]; 30 nM ATXII, paced at 1 Hz) | ATXII concentration inducing triggered activity / aftercontractions ([1]; paced left atrial appendages) [nM] | effect of If inhibitor on left atrial STA ([2]; BayK 8644 and 2-APB, zatebradine 70 μM, ZD-7288 titration to 100 μM) | IC50 ([2]; Rattus norvegicus, intact left atria exposed to BayK 8644 and 2-APB, read-out: IC50 for decrease of STA) [µM] | rate of appendage STA ([2]; isoproterenol+2-APB+70 μM zatebradine) [contractions/min] | IC50 ([3]; Rattus norvegicus, untreated right atria titrated with zatebradine, read-out: IC50 for decrease of right atrial contraction frequency) [µM] | right atrial contraction frequency ([3]; isoproterenol+70 μM zatebradine) [contractions/min] | maximum decrease of right atrial contraction frequency ([3]; zatebradine titration) [%] | left atrial force of contraction [4]
1 | ATXII: 47 amino acid peptide that enhances late sodium current and prolongs action potential duration | > 50 | prolongs action potential duration | < 50 |  |  |  |  |  |  | 
2 | COc1ccc(CCN(C)CCCN2CCc3cc(OC)c(OC)cc3CC2=O)cc1OC [zatebradine, 3-[3-[[2-(3,4-Dimethoxyphenyl)ethyl]methylamino]propyl]-1,3,4,5-tetrahydro-7,8,-dimethoxy-2H-3-benzazepin-2-one hydrochloride] |  |  |  | significantly decreases | 58 ± 5 | 110±24.5 | 12 ± 1.1 | 212±9.7 | ~50 | 95±3.8 % of initial force
